Test results from PMC5760651, “Peptidomimetic blockade of MYB in acute myeloid leukemia” (Nature Communications, 2018).
Non-standard residues stand in square brackets, D forms with d. Residues, ends and D or L forms follow the SMILES beside them.

Assays:
MV-411 cells = experiment: MYB ChIP-seq; assay type: cell-based, human; details: 20 µM, 6 h, 3 biological replicates
Experimental: ChIP was performed as previously described. Briefly, cells were fixed in 1% formalin in phosphate-buffered saline (PBS) for 10 minutes at room temperature. Glycine (125 mM final concentration) and Tris-HCl pH 8 (100 mM final concentration) were added to the cells and cells were washed twice in ice-cold PBS and resuspended in sodium dodecyl sulfate (SDS) lysis buffer (1% SDS, 10 mM EDTA, 50 mM Tris–HCl, pH 8.1). Lysates were sonicated using the Covaris S220 adaptive focused sonicator to obtain 100–500 bp chromatin fragments (Covaris, Woburn, CA). Lysates containing sheared chromatin fragments were resuspended in 0.01% SDS, 1.1% Triton-X100, 1.2 mM EDTA, 16.7 mM Tris–HCl, pH 8.1,167 mM NaCl. Lysates and antibody-coupled beads were incubated over night at 4 °C. […] Libraries were sequenced on the Illumina HiSeq 2500 instruments, with 30 million 2 × 50 bp paired reads.
For ChIP-seq analysis, reads were quality and adapter trimmed using ‘trim_galore’ before aligning to human genome assembly hg19 with bwa mem using the default parameters. Aligned reads with the same start position and orientation were collapsed to a single read before subsequent analysis. Density profiles were created by extending each read to the average library fragment size and then computing density using the BEDTools suite. Enriched regions were discovered using MACS 2.0 and scored against matched input libraries. […]

[1] = test system: primary patient-derived MLL-rearranged leukemia cells in NSG mice; experiment: Patient-derived MLL-rearranged leukemia xenograft, treatment upon peripheral leukemia; assay type: in vivo, mouse; details: vs vehicle
Experimental: All mouse experiments were carried out in accordance with the Memorial Sloan Kettering Institutional Animal Care and Use Committee. For toxicity studies, female C57BL/6J mice (The Jackson Laboratory, Bar Harbor, Maine, USA) were treated with MYBMIM peptide suspended in PBS and administered daily through intraperitoneal injection at a dose of 25 mg/kg for a total of 7 days. Mice were sacrificed at the end of treatment for hematologic, biochemical and histologic analyses. For pharmacokinetic studies, C57BL/6J mice (The Jackson Laboratory, Bar Harbor, Maine, USA) were treated with a single IP injection of 25 mg/kg BIO-MYBMIM, and blood plasma was collected 30 min, 2 h, 4 h, and 24 h post-injection. Quantification of BIO-MYBMIM was measured using the Quant-Tag Biotin kit (Vector Labs, cat. # BDK-2000) following the manufacturer instructions. For patient-derived xenografts, two hundred thousand primary AML MLL-rearranged leukemia cells were suspended in […] of PBS and transplanted via tail vein injection into 8-week-old sublethally irradiated (200 rad) female NOD.Cg-Prkdc(scid)Il2rg(tm1Wjl)/SzJ mice (The Jackson Laboratory, Bar Harbor, Maine, USA). Recipient mice were maintained on antibiotic supplementation in chow (0.025% trimethoprim, 0.124% sulfamethoxazole, Sulfatrim). Three days after transplant, mice were randomly assigned to experimental treatment groups. […]

C57BL/6J mice = experiment: Peripheral blood counts after 7 days of treatment; assay type: in vivo, mouse; details: 25 mg/kg IP daily
Experimental: All mouse experiments were carried out in accordance with the Memorial Sloan Kettering Institutional Animal Care and Use Committee. For toxicity studies, female C57BL/6J mice (The Jackson Laboratory, Bar Harbor, Maine, USA) were treated with MYBMIM peptide suspended in PBS and administered daily through intraperitoneal injection at a dose of 25 mg/kg for a total of 7 days. Mice were sacrificed at the end of treatment for hematologic, biochemical and histologic analyses. For pharmacokinetic studies, C57BL/6J mice (The Jackson Laboratory, Bar Harbor, Maine, USA) were treated with a single IP injection of 25 mg/kg BIO-MYBMIM, and blood plasma was collected 30 min, 2 h, 4 h, and 24 h post-injection. Quantification of BIO-MYBMIM was measured using the Quant-Tag Biotin kit (Vector Labs, cat. # BDK-2000) following the manufacturer instructions. For patient-derived xenografts, two hundred thousand primary AML MLL-rearranged leukemia cells were suspended in […] of PBS and transplanted via tail vein injection into 8-week-old sublethally irradiated (200 rad) female NOD.Cg-Prkdc(scid)Il2rg(tm1Wjl)/SzJ mice (The Jackson Laboratory, Bar Harbor, Maine, USA). […] Mice were treated from days 3–17 of this study for a total of 14 days and then monitored daily with clinical examination for survival analysis.

CC[C@@H](C)[C@@H](NC(=O)[C@@H](CCCCN)NC(=O)[C@@H](CCC(=O)O)NC(=O)[C@@H](CC(C)C)NC(=O)[C@@H](CCC(=O)O)NC(=O)[C@@H](CC(C)C)NC(=O)[C@@H](CC(C)C)NC(=O)[C@@H](CC(C)C)NC(=O)[C@@H](CCSC)NC(=O)[C@@H](CO)NC(=O)[C@H](NC(=O)[C@@H](CCC(=O)O)NC(=O)[C@@H](CC(N)=O)NC(=O)[C@@H](CCC(=O)O)NC(=O)[C@@H](CC(C)C)NC(=O)[C@@H](CCCCN)NC(C)=O)[C@H](C)O)C(=O)N[C@H](CCCNC(=N)N)C(=O)N[C@H](CCCCN)C(=O)NCC(=O)NCC(=O)N[C@H](CCCNC(=N)N)C(=O)N[C@H](CCCNC(=N)N)C(=O)N[C@H](CCCNC(=N)N)C(=O)N[C@H](CCC(N)=O)C(=O)N[C@H](CCCNC(=N)N)C(=O)N[C@H](CCCNC(=N)N)C(=O)N[C@H](CCCCN)C(=O)N[C@H](CCCCN)C(=O)N[C@H](CCCNC(=N)N)C(=O)NCC(=O)N[C@H](Cc1ccc(O)cc1)C(N)=O [MYBMIM] (Ac-[dK][dL][dE][dN][dE][dT][dS][dM][dL][dL][dL][dE][dL][dE][dK][dI][dR][dK]GG[dR][dR][dR][dQ][dR][dR][dK][dK][dR]G[dY]-NH2)
MYB complexes bound to promoters and enhancers eliminated (MV-411 cells): 2,690 | Leukemia burden by bone marrow analysis of human leukemia cells (hCD45) ([1]; NSG mice, 25 mg/kg IP twice daily, 21 days, 6 mice, p = 1.2e-4): significant reduction in leukemia burden | Levels of BCL2 in residual leukemia cells in the bone marrow ([1]; quantitative immunofluorescence, p = 0.3): minimal reduction | Peripheral blood counts (total leukocytes, lymphocytes, platelets, blood hemoglobin) (C57BL/6J mice): no significant changes
